Series [1] in a line: Plasma stability. The format is in vitro ADME. The settings on record: mouse, read-out: Plasma Stability T1/2.
Series [2] is described as follows: Plasma stability. It counts as in vitro ADME. The settings on record: rat, read-out: Plasma Stability T1/2 (converted).
Series [3] can be described thus: Plasma stability. The format is in vitro ADME. To be noted: human, read-out: Plasma Stability T1/2.
The nature of another series: PAMPA-BBB. The format is in vitro ADME. The settings on record: BBB = Blood Brain Barrier, read-out: PAMPA-BBB, Avg Pe.
Series [4] can be described thus: Protein binding. The settings on record: rat.
Series [5] is described as follows: Microsomal stability. To be noted: mouse, microsomes.
Series [6] can be described thus: Microsomal stability. To be noted: rat, microsomes.
The nature of series [7]: Microsomal stability. The settings on record: human, microsomes.
The next series deals with T1, human PANK3 (Homo sapiens, UniProt Q9H999).
T1 construct: His; made in house
Description: PANK activity assay (radiochemical, without acetyl-CoA). The format is biochemical.

Another series in a line: Caco2 permeability. It counts as in vitro ADME. To be noted: human, Caco-2; read-out: Caco2 Permeability Efflux Ratio (B2A/A2B). For orientation: Caco-2 monolayers are a common model of the intestinal barrier.
The test system of another series is C3A cells. Description: Intracellular CoA and metabolite levels in C3A cells. The format is cell-based, human. Here is the method: HEK293T cells (ATCC, #CRL-3216) were maintained in Dulbecco’s modified Eagle’s medium (DMEM, Biowhittaker/Lonza) supplemented with 10% FCS. Human C3A [HepG2/C3A, derivative of HepG2] cells (ATCC #CRL-10741) were purchased from ATCC® and maintained in Eagle’s minimum Essential medium (ATCC) supplemented with 2 mM glutamine, 10% fetal bovine serum (FCS, Altanta Biologicals), 50 U/ml penicillin and […] streptomycin. Both cell lines were confirmed to be mycoplasma-free. […]. […] After 24 h of treatment (total 48 h after transfection) the cells were washed with PBS and harvested and subjected to either total CoA or acetyl-CoA determinations.
Prior to labeling, cells were seeded at a density of 2–3 × 10^6 in 60 mm-dishes in reconstituted DMEM without added pantothenate and allowed to adhere overnight. The labeling was initiated by replacing the medium with 2 ml of labeling medium containing 0.1% dimethylsulfoxide (DMSO; control) or 10 μM of the compound in 0.1% DMSO. Cells were incubated for 24 h, the labeling medium was removed, and cells were washed with phosphate buffered saline and lysed by sonication in 20 mM Tris-HCl, pH 7.5, 2 mM DTT, 5 mM EDTA and 50 mM NaF. The lysates were fractionated by thin-layer chromatography after removal of the cell debris by centrifugation. The samples were spotted on Silica Gel H plates and resolved with 95% ethanol:28% ammonium hydroxide (4/1, v/v). The distribution of radioactivity on the plate was quantified using a Bioscan Imager (Bioscan, Inc.) together with quantification of the total cellular radioactivity determined by a Liquid Scintillation Analyzer (PerkinElmer Tri-Carb 2910 TR). Triplicate culture dishes were labeled for each group plus a dish for each group for determination of cell counts and viability using a Nucleocounter (New Brunswick Scientific) according to the manufacturer’s directions. The experiments were repeated twice in duplicate and the data represented is an overall average ± SEM.
Cultured cells or frozen tissues were resuspended in 2 ml cold water to which 500 μl of 0.25 M KOH was added, derivatized with monobromobimane (mBBr, Life technologies) and quantified by HPLC[23]. For acetyl-CoA determinations, C3A cells were resuspended in 1 ml water, added to 2 ml of methanol and 1 ml chloroform, and incubated on ice for 15 min. Chloroform 1.5 ml, 1.2 ml water and 30 pmol of [^13C2]acetyl-CoA (Sigma) was added, and centrifuged at 2000×g for 10 min. The top layer was loaded on a 2-(2-pyridyl) ethyl solid phase extraction column which was equilibrated with 1 ml 50% methanol/2% acetic acid. The column was washed twice with 1 ml 50% methanol/2% acetic acid and 1 ml water. CoA and thioesters were eluted twice with 1 ml 95% ethanol containing 50 mM ammonium hydroxide. Samples were resuspended in 90% methanol containing 15 mM ammonium hydroxide.
The mBBr derivatized sample was fractionated by reverse-phase HPLC using a Gemini C18 3 μm column (150 × 4.60 mm) from Phenomenex. The chromatography system was a Waters e2695 separation module with a UV/Vis and fluorescence detector and controlled by Empower 3 software. Solvent A was 50 mM potassium phosphate pH 4.6, and solvent B was 100% acetonitrile. Twenty microliters of sample was injected onto the column, and the flow rate was 0.5 ml/min. The HPLC program was the following: starting solvent mixture of 90% A/10% B, 0–2 min isocratic with 10% B, 2–6 min linear gradient from 10% B to 15% B, 6–18 min concave gradient from 15% B to 40% B, 18–23 min isocratic with 40% B, 23–25 min linear gradient from 40 to 10%, and 25–30 min isocratic with 10% B. The UV/vis detector was set at 393 nm, and the fluorescence detector was set with excitation at 393 nm and emission at 470 nm. […]

A further series deals with HEK293T cells. Description: Intracellular CoA levels in transfected HEK293T cells. To be noted: 10 μM, 24 h. The format is cell-based, human.
The nature of series [8]: Protein binding. The settings on record: mouse.
Series [9] is described as follows: Protein binding. To be noted: human.
Series [10] in a line: Tissue pantothenate levels in mice. It counts as in vivo. The settings on record: C57Bl6/J, mouse, liver; 200 mg/kg pantothenate by oral gavage, 4 h after last of 5 doses; read-out: calculated intracellular pantothenate concentration in liver. Here is the method: Plasma (10 μl) was added to 800 μl methanol and 190 μl water along with 200 pmol (β-alanyl-^13C3^15N)-pantothenate (^13C^15N-Pan, Sigma). Tissue (30–40 mg) was homogenized in 2 ml of 80% methanol, and 500 pmol of ^13C^15N-Pan was added. The samples were incubated at −80 °C for 4 h. Samples were spun at 3500xg for 10 min to pellet debris, and supernatant was transferred to a new tube and dried using a SpeedVac overnight. Samples were resuspended in water + 0.1% formic acid and spun through a Spin-X Centrifuge Tube Filter (0.22 μm Cellulose Acetate, Costar).
Pantothenate was analyzed using a Shimadzu Prominence UFLC attached to a QTrap 4500 equipped with a Turbo V ion source (Sciex). Samples were injected onto an XSelect® HSS C18, 2.5 μm, 2.1 × 150 mm column using a flow rate of 0.2 ml/min. Solvent A was 0.1% formic acid in water, and Solvent B was acetonitrile + 0.1% formic acid. […] The MRM transition for pantothenate was 220.0 / 184.1 m/z and [^13C^15N]pantothenate was 224.0 / 188.1 m/z both with a declustering potential, 35 V and collision energy, 22 V. The system was controlled by the Analyst® software (Sciex) and analyzed with MultiQuant™ 3.0.2 software (Sciex). Intracellular pantothenate was measured as pmoles/mg wet weight.

The source of these data is paper PMC6199309, “A therapeutic approach to pantothenate kinase associated neurodegeneration” (Nature Communications, 2018).

Values after ≈ are worked out from the molar mass of the structure shown. “Also recorded” adds a separate entry of the source. Structures can show the parent of a compound that is named as a salt.

T1 sequence (Q9H999 whole entry): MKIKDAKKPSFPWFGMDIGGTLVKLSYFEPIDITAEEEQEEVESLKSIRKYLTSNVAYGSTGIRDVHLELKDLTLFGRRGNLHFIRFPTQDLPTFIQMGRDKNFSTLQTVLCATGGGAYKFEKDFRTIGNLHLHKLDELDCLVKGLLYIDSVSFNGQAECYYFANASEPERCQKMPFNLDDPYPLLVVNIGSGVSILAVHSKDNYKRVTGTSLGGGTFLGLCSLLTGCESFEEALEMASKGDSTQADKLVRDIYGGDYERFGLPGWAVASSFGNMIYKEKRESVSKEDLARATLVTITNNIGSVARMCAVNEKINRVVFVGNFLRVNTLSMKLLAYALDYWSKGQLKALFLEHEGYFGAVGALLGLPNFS
Description for HEK293T cells: Chloroform 1.5 ml, 1.2 ml water and 30 pmol of [^13C2]acetyl-CoA (Sigma) was added, and centrifuged at 2000×g for 10 min. The top layer was loaded on a 2-(2-pyridyl) ethyl solid phase extraction column which was equilibrated with 1 ml 50% methanol/2% acetic acid. The column was washed twice with 1 ml 50% methanol/2% acetic acid and 1 ml water. […] Samples were resuspended in 90% methanol containing 15 mM ammonium hydroxide.
Description for human PANK3: The assay was linear with time and after 10 min at 37 °C the reaction was stopped by the addition of 4 μl of 10% (v/v) acetic acid. […] All the experiments were repeated twice in duplicate and the data were an average ± data range.
The IC50 values for the structure–activity study were calculated by fitting the inhibition data to a one-site model of the Michaelis–Menten equation. […] (GraphPad software) that accounts for the impact of enzyme-inhibitor binding on the free concentration of inhibitor.

Take `CC(C)c1ccc(CC(=O)N2CCN(c3ccc(C#N)cn3)CC2)cc1` [PZ-2863]: the solubility (as a rule, the concentration that dissolves in the medium under given conditions) in “Solubility at pH 7.4” worked out at 25 µM (≈ 8.71 µg/mL).
On to `CC(C)(C)c1ccc(NC(=O)N2CCN(c3ccc(C#N)cn3)CC2)cc1` [PZ-2789, N-(4-(tert-butyl)phenyl)-4-(5-cyanopyridin-2-yl)piperazine-1-carboxamide], for which the half-life in “Plasma stability [1]” was > 50 h; in “Plasma stability [2]” it was > 50 h; in the series “Plasma stability [3]”, > 50 h; in “Microsomal stability [5]”, 15.6 min; in the series “Microsomal stability [6]” it was 30.6 min; in “Microsomal stability [7]”, 7.8 min. Moreover, in “PAMPA-BBB”, the Papp stood at 303 ×10⁻⁶ cm/s. For the same compound, the “PAMPA; Avg Pe” value in the series “PAMPA” is 1232 10-6 cm/s. Moreover, in the series “Protein binding [4]”, the fraction unbound (commonly free concentration divided by total concentration) is 0.02. This compound yielded a solubility in the series “Solubility at pH 7.4” of 1.4 µM (≈ 0.509 µg/mL).
As for `CC(C)c1ccc(C(=O)CN2CCN(c3ccc(C#N)nn3)CC2)cc1` [PZ-3067, 6-(4-(2-(4-isopropylphenyl)-2-oxoethyl)piperazin-1-yl)pyridazine-3-carbonitrile], the IC50 (usually the concentration that gives 50% inhibition) against human PANK3 is > 100 µM. For the same compound, the “inhibition of PANK3 (in words)” value at human PANK3 (negative control) is “no effect; also recorded: Inactive”. For the same compound, the efflux ratio in the series “Caco2 permeability” came out at 0.5. For the same compound, the half-life in the series “Plasma stability [1]” is > 50 h; in the series “Plasma stability [2]”, 27 h; in “Plasma stability [3]” it was > 50 h; in the series “Microsomal stability [5]” it was 30.6 min; in “Microsomal stability [6]”, 13.2 min; in the series “Microsomal stability [7]”, 9 min. For the same compound, the Papp in the series “PAMPA-BBB” stood at 0.8 ×10⁻⁶ cm/s. Also, the “total intracellular CoA levels in C3A cells” value with C3A cells (24 h, increasing concentrations (20 and 50 μM less activating)) was “did not respond”. Besides, in the series with HEK293T cells, the “intracellular CoA, PANK3 overexpressing HEK293T cells” value was “inactive”. In the series “PAMPA”, the “PAMPA; Avg Pe” value is listed as 204 10-6 cm/s. For the same compound, the fraction unbound in the series “Protein binding [8]” is 0.04; in the series “Protein binding [4]”, 0.1; in “Protein binding [9]” it was 0.04. In the series “Solubility at pH 7.4”, this compound yielded a solubility of 18 µM (≈ 6.29 µg/mL).
`CC(C)(CO)[C@@H](O)C(=O)NCCC(=O)O` [pantothenate, D-pantothenic acid, hemicalcium salt]: the “CoA content of C3A cells on varying pantothenate in medium” value in the series with C3A cells (pantothenate alone, without PZ-2891) is listed as “no effect on CoA content”. In addition, the concentration at 4 h in series [10] was 24.4 µM.
